Experimental data from US7192607B2, “Formulations for the prevention or the treatment of diseases affecting mucosae or skin, or for pregnancy prevention, and an applicator for the delivery of topical formulations into mucosal cavities” (Infectio Recherche Inc, priority 2002, dated 2007).

Columns and labels:
[1] = test system: rabbit, bovine and human papillomaviruses; conditions: brief treatment with low concentrations; Howett et al., 1999; cited from earlier work
HSV-2 (333) = test: Infectivity of HSV-2 (333) pretreated with SLS on Vero cells (PFU); type: cell-based, Herpes simplex virus type-2
Protocol: (§1) The effect of pretreating different strains of herpes viruses with SLS or DS on their viral infectivities to susceptible cells has been evaluated. In brief, cells were seeded in 24 well-plates (Costar, Montreal, QC, Canada). Prior to infection, the virus was either suspended in culture medium or phosphate buffered saline (PBS), or incubated with different concentrations of SLS in PBS for 1 h at 37° C. At confluency, cells were incubated with viral suspensions by centrifuging the plates (750× g for 45 min at 20° C.) to allow virus adsorption. Virus was removed and cell sheets were then overlaid with 0.5 ml of 0.6% agarose Seaplaque (Marine Colloids, Rockland, Md.) prepared in appropriate culture medium. The plates were incubated for 2 days at 37° C. Cells were then fixed with 10% formaldehyde in PBS for 20 min, washed with deionized water and stained with 0.05% methylene blue. Viral infectivity was evaluated via the determination of Plaque Forming Units (PFU).

[2] = test system: various HSV-1 and HSV-2 strains; test: Infectivity of HSV strains pretreated with SLS on Vero cells, text summary across strains; type: cell-based, Herpes simplex virus; conditions: pretreatment of the viruses with 50 μM SLS
Protocol: as §1
HSV-1 (strain F) infectivity was reduced to 21% when viral particles were pretreated with 25 μM SLS. The infectivities of all HSV-2 strains were between 50 to 70% following preincubation with 25 μM SLS. A complete loss of the infectivity of all strains tested were obtained following pretreatment of the viruses with 50 μM SLS.

CCCCCCCCCCCCOS(=O)(=O)[O-].[Na+] [SLS, Sodium lauryl sulfate]
effect against rabbit, bovine and human papillomaviruses (non-enveloped viruses) [1]: effective
PFU (% of control) for HSV-2 (333) (HSV-2 (333); virus pretreated with 6.25 μM SLS for 1 hour at 37° C.): 102.9 ± 23.5 % of control
PFU (% of control) for HSV-2 (333) (HSV-2 (333); virus pretreated with 12.5 μM SLS for 1 hour at 37° C.): 115.4 ± 17.0 % of control
PFU (% of control) for HSV-2 (333) (HSV-2 (333); virus pretreated with 25 μM SLS for 1 hour at 37° C.): 72.9 ± 9.1 % of control
PFU (% of control) for HSV-2 (333) (HSV-2 (333); virus pretreated with 50 μM SLS for 1 hour at 37° C.): 0 % of control
infectivity of all strains tested [2]: complete loss
